Results: publication PMC11328113, “Dissecting the functional behavior of the differentially phosphorylated prolyl isomerase, Pin1” (Protein Science : A Publication of the Protein Society, 2024)
Where a SMILES comes first, the peptide text is derived from it. Where no end group is shown, it is not given here. [ ]: non-standard residue; d: D form. The star is where a group is joined. FITC = O=C1OC2(c3ccc(O)cc3Oc3cc(O)ccc32)c2ccc(NC(=S)*)cc21; pS = N[C@@H](COP(=O)(O)O)C(=O)O; Ahx = NCCCCCC(=O)O

Legend:
[1] = tested on: cAMP-dependent protein kinase (PKA); test: LC-MS/MS (EThcD) of additional Pin1 phosphosites after PKA incubation (trypsin digestion); format: biochemical; conditions: 24 h with PKA, not consistently detected across timepoints
Protocol: Phosphorylated Pin1 was digested with either trypsin (Promega) or the endoproteinase Lys‐C (Promega) at a 1:50 ratio of enzyme: protein. To localize the phosphorylation sites, trypsin digestion was performed. To quantify the phosphosite occupancy over the phosphorylation time‐course, differentially phosphorylated Pin1 was digested with Lys‐C. For both enzymatic reactions, Pin1 was digested in 100 mM ammonium bicarbonate pH 8.0 for 3 h at 37°C, and the reaction was quenched by the addition of formic acid (2% v/v final concentration). All peptides were separated using an UltiMate 3000 HPLC series, which was either coupled to a QExactive HF or Orbitrap Eclipse mass spectrometer (Thermo Fisher Scientific). Peptides were desalted on a PepMap100 C18 nanoViper trap column (75 μM x 2 cm, […] particle size) (Thermo Fisher Scientific) and separated with a PepMap100 C18 nanoViper analytical column (75 μM x 15 cm, […] particle size) (Thermo Fisher Scientific) using mobile phase A (H2O and 0.1% formic acid) and mobile phase B (100% acetonitrile and 0.1% formic acid) and eluted using a gradient from […] to 44% B over 30 min. The column flow rate was set to 350 nL/min with the column temperature set at 40°C. To quantify the extent of phosphorylation on Pin1, MS/MS was performed on the QExactive HF mass spectrometer. […]
To prevent phospho‐loss resulting in misassignment of the phosphosite location (Boersema et al., [2009]), electron transfer dissociation with supplemental HCD (EThcD) was performed on the trypsin‐digested peptides to localize the phosphosites. […] ETD was performed using an automatically determined reagent time set based on precursor charge state. […] Fragment ions were detected in the Orbitrap using a resolution setting of 30,000. […]
All RAW files were processed and analyzed using Proteome Discoverer version 2.5. […] Additional phosphosites, Ser58, Ser65, and Ser67 (Table S4) were detected after 24 h of incubation with PKA, however, these were not consistently detected across all timepoints and, therefore, were excluded from phosphosite quantitation. […]

[2] = tested on: cAMP-dependent protein kinase (PKA); test: Native MS of Pin1 phosphorylation by PKA; format: biochemical; conditions: 30°C, pH 6.8, mean ± SD, triplicate
Protocol: (§1) To phosphorylate Pin1 for the native MS analysis, Pin1 (10 μM) was incubated at 30°C with 2 mM ATP, 10 mM MgCl2 (BDH Laboratory supplies), and 10,000 units PKA in 100 mM ammonium acetate pH 6.8 for 1, 3, 8, and 24 h. The concentration of PKA and Pin1 was optimized in order to detect sequential phosphorylation within the time course. At each time‐point, aliquots were taken, the reaction quenched by addition of EDTA (final concentration 20 mM), and the sample buffer exchanged using 3 kDa Amicon Ultra 0.5 mL centrifugal concentrators into 100 mM ammonium acetate pH 6.8 prior to MS analysis. Phosphorylation assays at each time‐point were carried out in triplicates, and the error was reported as the standard deviation.
(§2) All native MS was performed on a QExactive HF mass spectrometer (Thermo Fisher Scientific) equipped with a nanoelectrospray ionization source that used gold‐coated borosilicate glass capillaries, pulled in‐house. Positive ionization mode was used throughout, with the capillary voltage set to 1.2 kV. The source temperature was set at 250°C, in source dissociation at 0, S‐lens RF at 100. The Pin1 concentration was set to 2.5 μM and a mass range of 1500–4000 m/z was acquired. Mass spectra were acquired using a maximum ion injection time of 100 ms. The automatic gain control was set to 1 x 10^6 and the ions detected in the orbitrap with resolution set to 15,000. All data were analyzed using XCalibur (version 4.2). To quantify the abundance of unphosphorylated, phosphorylated Pin1 and Pin1‐Pintide complexes, the relative abundance of the peaks corresponding to the specific 9+, 8+, and 7+ Pin1 species of interest was summed and expressed as a percentage of all Pin1‐containing peaks detected.

Pin1 [3] = biological target: T1, Pin1 (Homo sapiens, UniProt Q13526); test: Chymotrypsin-coupled Pin1 PPIase assay (suc-AEPF-pNA); format: biochemical; conditions: in the absence of PKA, 4°C, pH 7.8
T1 construct: His6 (TEV-cleavable) (N, cleaved yes); host or cells: E. coli BL21 (DE3)
T1 sequence (Q13526 whole entry): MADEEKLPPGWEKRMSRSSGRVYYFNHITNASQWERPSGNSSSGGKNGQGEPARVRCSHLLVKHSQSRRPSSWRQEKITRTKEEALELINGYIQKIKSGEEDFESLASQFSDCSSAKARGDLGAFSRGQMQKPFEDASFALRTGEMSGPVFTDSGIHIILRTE
Protocol: To perform the FP and enzymatic activity assays, Pin1 was phosphorylated by incubation of 40 μM Pin1 with 10,000 units of cAMP‐dependent protein kinase (PKA) (New England BioLabs) in kinase buffer (50 mM Tris‐HCl, 10 mM MgCl2, 1 mM DTT, and pH 7.5) supplemented with 2 mM adenosine triphosphate (ATP) (New England BioLabs) at 37°C. At 1 min, 1 h, 3 h, 8 h, 12 h, 18 h, 24 h, and 32 h, aliquots were taken, and PKA activity was stopped by addition of 20 mM EDTA, and the samples were kept at −80°C prior to analysis.
Pin1 (phosphorylated or non‐phosphorylated, 80 nM), in buffer containing 35 mM HEPES, pH 7.8, was incubated with 30 mg/mL ice‐cold chymotrypsin (diluted in 1 mM HCl) (Sigma‐Aldrich) and 2.5 mM of PPIase substrate (Suc‐AEPF‐pNA in 460 mM LiCl in trifluoroethanol) (#SAP‐3947‐PI, Vivitide) in a 1 mL cuvette. pNA release was measured at 4°C for 1 min on a Cary 300 UV–visible spectrophotometer using an absorption wavelength at 390 nm.
The data were collected in triplicate and analyzed using GraphPad Prism 7. The data were reported as the mean ± standard error of the mean.

[4] = tested on: cAMP-dependent protein kinase (PKA); test: LC-MS/MS phosphosite occupancy of Pin1 upon incubation with PKA (Lys-C digestion); format: biochemical; conditions: triplicate
Protocol: as §1
Phosphorylated Pin1 was digested with either trypsin (Promega) or the endoproteinase Lys‐C (Promega) at a 1:50 ratio of enzyme: protein. To localize the phosphorylation sites, trypsin digestion was performed. To quantify the phosphosite occupancy over the phosphorylation time‐course, differentially phosphorylated Pin1 was digested with Lys‐C. For both enzymatic reactions, Pin1 was digested in 100 mM ammonium bicarbonate pH 8.0 for 3 h at 37°C, and the reaction was quenched by the addition of formic acid (2% v/v final concentration). All peptides were separated using an UltiMate 3000 HPLC series, which was either coupled to a QExactive HF or Orbitrap Eclipse mass spectrometer (Thermo Fisher Scientific). […] To quantify the extent of phosphorylation on Pin1, MS/MS was performed on the QExactive HF mass spectrometer. […]
To quantify the abundance of phosphorylated peptides, the retention time of the eluted peptides was identified using Proteomic Discoverer v.2.5. Spectra were averaged across the peptides chromatographic peak, and the percentage of phosphorylated peptide was calculated as a percentage of the total abundance of unphosphorylated and phosphorylated peptide. Full details of the peptides used for quantitation are detailed in the Supporting Information (Table S4).

Pin1 [5] = biological target: T1, Pin1; test: Native MS of Pintide bound to differentially phosphorylated Pin1; format: binding; conditions: for % Pintide bound: 2.5 μM : 25 μM Pin1 : Pintide, 100 mM ammonium acetate, mean ± SD, triplicate
Protocol: as §1
Unlabeled Pintide [AcHN‐WFY(pS)PFLE‐CONH2] was purchased from China Peptides and dissolved in 100 mM ammonium acetate pH 8 to a final concentration of 1 mg/mL and stored at −80°C until use. To determine the affinity of […] for differentially phosphorylated Pin1, Pintide was added to each Pin1 phosphorylation time‐point at a 2.5 μM: 25 μM Pin1 to Pintide ratio and the sample was directly infused into the mass spectrometer. Experiments were carried out in triplicates, and the error was reported as the standard deviation.
as §2

Pin1 [6] = biological target: T1, Pin1; test: Fluorescence polarization, FITC-Pintide binding to Pin1; conditions: fluorescently labelled Pintide 10 nM; FP, room temperature, 5 mM HEPES pH 7.4, 30 mM NaCl, 0.1% Tween20, 1% DMSO; triplicates; read-out: apparent Kd (Pin1 titration to fluorescently labelled Pintide)
Protocol: FP experiments were conducted using a fluorescein (FITC)‐labeled “Pintide” [5‐FITC‐(Ahx)‐WFY(pS)PFLE‐CONH2] purchased from China Peptides. FP data were collected at room temperature in buffer containing 5 mM HEPES pH 7.4, 30 mM NaCl, 0.1% v/v Tween20, and 1% v/v DMSO using Corning black, round‐bottom, low‐binding 384‐well plates. For all experiments, a fixed concentration of 10 nM fluorescently labeled Pintide and 40 μM of Pin1 protein was used. All plates were incubated for 10 min and shaken for 10 s before polarization was measured using a CLARIOstar Plus microplate reader with an excitation wavelength of 482/16 nm and an emission wavelength of 530/40 nm; dichroic mirror 504; flashes: 200. All data were analyzed using GraphPad Prism 7, and sigmoidal curves were fitted using the following Equation: Y=Bottom+Top−Bottom/1+10^Logt1/2−X*HillSlope. where Y = mP value, X = time, and Top and bottom = plateaus in mP.
Figure S1. (a) Fluorescence polarisation data for Pin1 titration to fluorescently labelled Pintide (10 nM). The apparent Kd was 0.7 µM. […] (b) Fluorescence polarisation control data showing polarisation, mP values, for the fluorescently labelled Pintide alone (Only Pintide, black), PKA in the presence of Pintide without Pin1 at 1 min and 24 h time points, and Pin1 in the presence of Pintide without PKA at 1 min and 24 h time points. […]

[7] = biological target: Pin1 phosphorylated at Ser71 (singly phosphorylated Pin1) (UniProt Q13526); test: fluorescence polarisation; time course: Pin1 (40 uM) incubated with PKA and ATP at 37 C for 1 min to 32 h, stopped with 20 mM EDTA, then 10 nM FITC-Pintide; room temperature, 5 mM HEPES pH 7.4, 30 mM NaCl, 0.1% Tween20, 1% DMSO; control without PKA
Chain of Pin1 phosphorylated at Ser71 (singly phosphorylated Pin1) (Q13526 whole entry): as above

Pin1: peptidyl‐prolyl cis‐trans isomerase comprising N-terminal WW domain and C-terminal PPIase domain
Phosphorylation Stoichiometry (24h), Ser58 [1]: 0.19
Phosphorylation Stoichiometry (24h), Ser65 [1]: 0.05
Phosphorylation Stoichiometry (24h), Ser67 [1]: 0.05
relative abundance of doubly phosphorylated Pin1 ([2]; 3 h incubation with PKA): ~ 65 ± 23%
relative abundance of doubly phosphorylated Pin1 ([2]; 8 h incubation with PKA): 85% ± 11
relative abundance of Pin1 with two phosphorylation sites ([2]; 24 h incubation with PKA): 95% ± 0.01
absorption at 390 nm upon addition of Pin1 to the substrate (catalytic activity) (Pin1 [3]): increased
phosphorylation occupancy of Ser16 ([4]; 1 h incubation with PKA): 4%
phosphorylation occupancy of Ser71 ([4]; 1 h incubation with PKA): ~ 90%
phosphorylation occupancy of Ser16 ([4]; 24 h incubation with PKA): ~ 80%

AcHN‐WFY(pS)PFLE‐CONH2 [Pintide]
% Pintide bound (Pin1 [5]; 0 phosphosites on Pin1): 39 ± 5%
% Pintide bound (Pin1 [5]; 1 phosphosite on Pin1, * p <0.05 (ANOVA, Tukey HSD)): 26 ± 6* %
% Pintide bound (Pin1 [5]; 2 phosphosites on Pin1, ** p <0.01 (ANOVA, Tukey HSD)): 4 ± 1** %
Pin1 binding to Pintide (Pin1 [5]; Pin1 phosphorylated at Ser71, versus unphosphorylated, native MS): small, yet significant, difference

CC(C)C[C@H](NC(=O)[C@H](Cc1ccccc1)NC(=O)[C@@H]1CCCN1C(=O)[C@H](COP(=O)(O)O)NC(=O)[C@H](Cc1ccc(O)cc1)NC(=O)[C@H](Cc1ccccc1)NC(=O)[C@H](Cc1c[nH]c2ccccc12)NC(=O)CCCCCNC(=S)Nc1ccc2c(c1)C(=O)OC21c2ccc(O)cc2Oc2cc(O)ccc21)C(=O)N[C@@H](CCC(=O)O)C(N)=O [FITC‐Pintide, 5‐FITC‐(Ahx)‐WFY(pS)PFLE‐CONH2] ({FITC-Ahx}-WFY[pS]PFLE-NH2)
Kd (Pin1 [6]): 700 nM

WFY[pS]PFLE-NH2 (not fully specified (N-terminus); printed as 5‐FITC‐(Ahx)‐WFY(pS)PFLE‐CONH_2_) [FITC-Pintide [5-FITC-(Ahx)-WFY(pS)PFLE-CONH2]]
% of binding inhibited after 1 h with PKA [7]: 16%
